Assay [1] concerns STOP+/− mice. Kind of assay: Open field locomotor activity. The assay is classed as in vivo, mouse. As for the experimental part:
The NAP vehicle solution (termed DD), included the following ingredients (per milliliter): 7.5 mg of NaCl, 1.7 mg of citric acid monohydrate, 3 mg of disodium phosphate dihydrate, and 0.2 mg of benzalkonium chloride solution (50%) (Alcalay R N et al., Neurosci Lett, 361(1-3): 128-131 (2004)). NAP or vehicle solution (DD) was administered to mice hand-held in a semisupine position with nostrils facing the investigator. A pipette tip was used to administer 2.5 μl/nostril. The mouse was hand-held until the solution was totally absorbed (10 s). […] STOP+/− male mice (5 months old, n=4) received daily doses of 10 mg/kg intraperitoneal injection (IP) of clozapine (5 days a week), for the duration of the experiment (7 weeks). A control STOP+/− male mice group (5 month old, n=3) were injected daily with saline. NAP treatment included daily (5 days a week) intranasal administrations (0.5 μg/5 μl/mouse/day) for 7-10 weeks. For intranasal administration, the peptide was dissolved in the vehicle solution (termed DD) described above. Each experimental group included 10-12 mice, 4-12 month-old; mean age 6 months). […]
Locomotor activity was measured in 5 consecutive sessions, 3 minutes each and the mean path length in cm of each mouse in the 3 minute sessions per the entire 15 minute period of observation in open field (80 cm diameter) was determined. […]

The test system of assay [2] is peripheral blood mononuclear cells (PBMCs). Conditions: cited from earlier work.
Assay [3] concerns animal models simulating parts of the Alzheimer's disease pathology. Conditions: in vivo; cited from earlier work.
The test system of assay [4] is model of fetal alcohol syndrome. Conditions: in vivo, ip; cited from earlier work.
Assay [5] deals with STOP+/− mice. Kind of assay: Object recognition and discrimination test. The assay is classed as in vivo, mouse. As for the experimental part: The NAP vehicle solution (termed DD), included the following ingredients (per milliliter): 7.5 mg of NaCl, 1.7 mg of citric acid monohydrate, 3 mg of disodium phosphate dihydrate, and 0.2 mg of benzalkonium chloride solution (50%) (Alcalay R N et al., Neurosci Lett, 361(1-3): 128-131 (2004)). NAP or vehicle solution (DD) was administered to mice hand-held in a semisupine position with nostrils facing the investigator. A pipette tip was used to administer 2.5 μl/nostril. The mouse was hand-held until the solution was totally absorbed (10 s). […]
The test is based on visual discrimination between two different objects in an arena of 30 cm×40 cm. […] One hour after the daily intranasal NAP treatment, or clozapine injection, each male mouse was exposed to two identical objects for 5 minutes and the time spent sniffing/touching each object was measured (first daily session). Three hours later, the mice were exposed to one familiar and one novel object for 3 minutes and the time spent sniffing/touching each object was measured again (second session, measuring visual memory). The data was analyzed using two different methods. The first method measured the time spent exploring an object, novel or familiar, and compared the two. The second method evaluated the discrimination capacity of the mice between the novel object and the familiar object using the following formula. […]

In assay [6] the test system is STOP+/− mice. The assay can be described thus: Social recognition test. The assay is classed as in vivo. Conditions: 8-month-old STOP+/− mice; NAP 0.5 microgram/mouse/day, clozapine 3 mg/kg/day, FIG. 16. As to the method:
In the social recognition test, 8-month-old mice (STOP+/−) were habituated for 20 minutes in a cage and then exposed to a new juvenile mouse (1.5-month old) for one minute—followed by a 30-minute interval and another 1 minute exposure four times (familiarizing the test subject with the juvenile mouse). The fifth exposure session included a novel juvenile mouse. Time spent interacting with the juvenile mouse was recorded.

Entries after “also recorded” stand apart in the source; their conditions may differ.

`CC[C@H](C)[C@H](NC(=O)[C@H](CO)NC(=O)[C@@H](NC(=O)[C@@H]1CCCN1C(=O)[C@H](C)NC(=O)[C@@H](N)CC(N)=O)C(C)C)C(=O)N1CCC[C@H]1C(=O)N[C@@H](CCC(N)=O)C(=O)O` [NAP]: in the assay with STOP+/− mice [1] (Example 3, STOP+/− male mice, NAP intranasal 0.5 μg/mouse/day or clozapine 10 mg/kg IP, FIG. 8), the “hyper-locomotion (path length) in open field” value is given as “significantly decreased the hyper-locomotion; also recorded: significantly reduced the path length”. Moreover, in the assay on STOP+/− mice [1] (Example 4, STOP+/− mice, NAP intranasal 0.5 microgram/mouse/day, clozapine injection 3 mg/kg/day, FIG. 11), the open field activity entry was “also reduced the activity”. For the same compound, in assay [2], the anti-CD3-/anti-CD28-stimulated proliferation result is reported as “suppressed”; the “expression of CD69, CD154 and IFN-γ” value is recorded as “decreased the expression”. Besides, the “protection in Alzheimer's disease pathology models” value in assay [3] is on record as “protective”. Besides, in assay [4], the “fetal death after intraperitoneal injection of alcohol” value was “inhibited”. Also, the “object recognition / discrimination of novel object” value with STOP+/− mice [5] (Example 3, STOP+/− male mice, 3 h after first session, NAP intranasal 0.5 μg/mouse/day or clozapine 10 mg/kg IP, FIG. 9) is “ameliorated completely the cognitive impairment; also recorded: significantly beneficial”. For the same compound, the “object recognition, discrimination capacity D2 (memory scores)” value in the assay with STOP+/− mice [5] (Example 4, STOP+/− mice, NAP 0.5 microgram/mouse/day, clozapine 3 mg/kg/day, versus pooled controls, FIG. 12) is reported as “effective to increase memory scores”. Moreover, the social recognition behavior result in the assay on STOP+/− mice [6] was “partially ameliorated”.

The record behind these values is patent US20120010148A1, “COMBINATION THERAPIES USING NAP” (ALLON THERAPEUTICS INC., priority 2008, published 2012).
